Values quoted from earlier work as cited in patent publication US20250295727A1, “STABLE, READY-TO-ADMINISTER AQUEOUS FORMULATIONS OF DALBAVANCIN” (HIKMA PHARMACEUTICALS USA INC., priority 2022, published 2025).

Settings: lyophilized
[1] = storage at 25° C. for 12 months

decrease of B0 [1]: 8.5%
increase of MAG [1]: 10.2%
decrease in dalbavancin's primary factor B0 (storage for 36 months at 5° C.): 3.6%
increase in MAG (storage for 36 months at 5° C.): 2.9%
Substance: dalbavancin [unformulated lyophilized dalbavancin]
